Laboratory results reported in patent publication US20250360109A1, “COMPOSITIONS AND METHODS FOR TREATING DEPRESSION IN FEMALES” (priority 2022, published 2025).

Columns and labels:
Assay type in all cases: in vivo, human
[1] = system: adult subjects with major depressive disorder (MDD); experiment: Phase 2 placebo-controlled study in MDD, 17-item Hamilton Depression Rating Scale (HAM D-17) total score; conditions: mITT; for Change from Baseline, HAM-D-17 Total at Week 2, LSM Difference (95% CI) / Change from Baseline, HAM-D-17 Total at Week 4, LSM Difference (95% CI): 20 mg/day vs Placebo; for Change from Baseline, HAM-D-17 Total at Week 2, Mean (SD) / Change from Baseline, HAM-D-17 Total at Week 2, Median / Change from Baseline, HAM-D-17 Total at Week 4, Mean (SD) / Change from Baseline, HAM-D-17 Total at Week 4, Median / HAM-D-17 Total at Week 2, Mean (SD) / HAM-D-17 Total at Week 2, Median / HAM-D-17 Total at Week 4, Mean (SD) / HAM-D-17 Total at Week 4, Median: 20 mg/day
Protocol: (§1) A Phase 2, multicenter, double-blind, randomized, placebo-controlled study of the safety and efficacy of SP-624 in the treatment of adult subjects with major depressive disorder (MDD) as defined by the Diagnostic and Statistical Manual of Mental Disorders, Fifth Edition (DSM-5) was carried out. Following the successful completion of a Screening Phase, subjects were randomized to one of two treatment groups in a 1:1 ratio and received Compound 1 (SP-624) or placebo over a treatment period of four weeks (Treatment Group #1: SP-624 20 mg/day; Treatment Group #2: Placebo).
(§2) Prior to initiating the 4-week treatment period, subjects completed a Screening/Baseline period of up to 28 days, during which time all screening assessments were performed, and any current depression medications discontinued. All screening assessments were completed before discontinuing any current depression medications. Subjects returned for a Baseline Visit to complete efficacy and safety assessments. During the treatment period, subjects returned to the investigative site to complete efficacy and safety assessments at the end of Weeks 1, 2, 3, and 4. After the final dose of study drug, subjects completed a follow-up period of two weeks and returned at the end of Weeks 5 and 6. Subjects may be treated with anti-depressant medications according to physician recommendations after completion of the Week 5 Visit.
(§3) Each dose of Compound 1 was supplied as two capsules, each containing 10 mg of active pharmaceutical ingredient (API). Matching placebo capsules identical in shape and color to the active capsules were used.
(§4) Secondary efficacy endpoints included: • Change from Baseline to Weeks 1, 2, and 3 in MADRS total score, • Change from Baseline to Weeks 1, 2, 3, and 4 in Clinical Global Impression-Severity (CGI-S) total score, • Change from Baseline to Week 5 and change from Week 4 to Week 5 in MADRS total score and CGI-S total score, • Change from Baseline to Week 2 and Week 4 in the 17-item Hamilton Depression Rating Scale (HAM D-17) total score, • Change from Baseline to Week 2 and Week 4 in the Sheehan Disability Scale (SDS), • Change from Baseline to Week 2 and Week 4 in the Quick Inventory of Depressive Symptomology-Self Report (QIDS-SR), and • Change from Baseline to Week 2 and Week 4 in the Quality of Life Enjoyment and Satisfaction Questionnaire-Short Form (Q-LES-Q-SF).

[2] = system: adult subjects with major depressive disorder (MDD); experiment: Phase 2 placebo-controlled study in MDD, Quality of Life Enjoyment and Satisfaction Questionnaire-Short Form (Q-LES-Q-SF); conditions: mITT; for Change from Baseline, Q-LES-Q-SF Total at Week 2, LSM Difference (95% CI) / Change from Baseline, Q-LES-Q-SF Total at Week 4, LSM Difference (95% CI): 20 mg/day vs Placebo; for Change from Baseline, Q-LES-Q-SF Total at Week 2, Mean (SD) / Change from Baseline, Q-LES-Q-SF Total at Week 2, Median / Change from Baseline, Q-LES-Q-SF Total at Week 4, Mean (SD) / Change from Baseline, Q-LES-Q-SF Total at Week 4, Median / Q-LES-Q-SF Total at Week 2, Mean (SD) / Q-LES-Q-SF Total at Week 2, Median / Q-LES-Q-SF Total at Week 4, Mean (SD) / Q-LES-Q-SF Total at Week 4, Median: 20 mg/day
Protocol: as §1, §2, §3, §4

[3] = system: adult subjects with major depressive disorder (MDD); experiment: Phase 2 placebo-controlled study in MDD, Montgomery-Asberg Depression Rating Scale (MADRS) total score; conditions: Female, mITT
Protocol: as §1, §2, §3
The primary efficacy endpoint was Change from Baseline to Week 4 in Montgomery-Asberg Depression Rating Scale (MADRS) total score.
as §4

COC1=CC(=O)C[C@@H](C)[C@]12Oc1c(Cl)c(-c3nnc(C)o3)cc(OC)c1C2=O [SP-624, (2S,6′R)-7-Chloro-2′,4-dimethoxy-6′-methyl-6-(5-methyl-1,3,4-oxadiazol-2-yl)-3H-spiro[1-benzofuran-2,1′-cyclohex [2]ene]-3,4′-dione]
Change from Baseline, HAM-D-17 Total at Week 2, LSM Difference (95% CI) ([1]; Female): −0.9 (−2.6, 0.8)
Change from Baseline, HAM-D-17 Total at Week 4, LSM Difference (95% CI) ([1]; Female): −2.3 (−4.2, −0.4)
Change from Baseline, HAM-D-17 Total at Week 2, Mean (SD) ([1]; Female): −6.4 (5.99)
Change from Baseline, HAM-D-17 Total at Week 2, Median ([1]; Female): −5
Change from Baseline, HAM-D-17 Total at Week 4, Mean (SD) ([1]; Female): −8.8 (6.82)
Change from Baseline, HAM-D-17 Total at Week 4, Median ([1]; Female): −8
HAM-D-17 Total at Week 2, Mean (SD) ([1]; Female): 16.6 (6.25)
HAM-D-17 Total at Week 2, Median ([1]; Female): 17
HAM-D-17 Total at Week 4, Mean (SD) ([1]; Female): 14.6 (7.03)
HAM-D-17 Total at Week 4, Median ([1]; Female): 15
Change from Baseline, HAM-D-17 Total at Week 2, LSM Difference (95% CI) ([1]; Male): 0.1 (−2.6, 2.8)
Change from Baseline, HAM-D-17 Total at Week 4, LSM Difference (95% CI) ([1]; Male): 1.4 (−1.4, 4.3)
Change from Baseline, HAM-D-17 Total at Week 2, Mean (SD) ([1]; Male): −5.7 (5.90)
Change from Baseline, HAM-D-17 Total at Week 2, Median ([1]; Male): −5
Change from Baseline, HAM-D-17 Total at Week 4, Mean (SD) ([1]; Male): −7.8 (6.57)
Change from Baseline, HAM-D-17 Total at Week 4, Median ([1]; Male): −7
HAM-D-17 Total at Week 2, Mean (SD) ([1]; Male): 16.2 (6.58)
HAM-D-17 Total at Week 2, Median ([1]; Male): 17
HAM-D-17 Total at Week 4, Mean (SD) ([1]; Male): 14.3 (6.96)
HAM-D-17 Total at Week 4, Median ([1]; Male): 15
Change from Baseline, Q-LES-Q-SF Total at Week 2, LSM Difference (95% CI) ([2]; Female): 1.1 (−1.8, 3.9)
Change from Baseline, Q-LES-Q-SF Total at Week 4, LSM Difference (95% CI) ([2]; Female): 3.3 (−0.3, 6.8)
Change from Baseline, Q-LES-Q-SF Total at Week 2, Mean (SD) ([2]; Female): 7.8 (10.32)
Change from Baseline, Q-LES-Q-SF Total at Week 2, Median ([2]; Female): 6
Change from Baseline, Q-LES-Q-SF Total at Week 4, Mean (SD) ([2]; Female): 11.4 (14.11)
Change from Baseline, Q-LES-Q-SF Total at Week 4, Median ([2]; Female): 10
Q-LES-Q-SF Total at Week 2, Mean (SD) ([2]; Female): 59.2 (11.32)
Q-LES-Q-SF Total at Week 2, Median ([2]; Female): 59
Q-LES-Q-SF Total at Week 4, Mean (SD) ([2]; Female): 62.1 (13.87)
Q-LES-Q-SF Total at Week 4, Median ([2]; Female): 59
Change from Baseline, Q-LES-Q-SF Total at Week 2, LSM Difference (95% CI) ([2]; Male): −2.2 (−6.7, 2.3)
Change from Baseline, Q-LES-Q-SF Total at Week 4, LSM Difference (95% CI) ([2]; Male): −1.3 (−6.4, 3.7)
Change from Baseline, Q-LES-Q-SF Total at Week 2, Mean (SD) ([2]; Male): 5.5 (10.39)
Change from Baseline, Q-LES-Q-SF Total at Week 2, Median ([2]; Male): 4
Change from Baseline, Q-LES-Q-SF Total at Week 4, Mean (SD) ([2]; Male): 7.1 (11.54)
Change from Baseline, Q-LES-Q-SF Total at Week 4, Median ([2]; Male): 6
Q-LES-Q-SF Total at Week 2, Mean (SD) ([2]; Male): 59.5 (12.80)
Q-LES-Q-SF Total at Week 2, Median ([2]; Male): 59
Q-LES-Q-SF Total at Week 4, Mean (SD) ([2]; Male): 61.5 (12.26)
Q-LES-Q-SF Total at Week 4, Median ([2]; Male): 61
Change from Baseline, MADRS Total at Week 1, LSM Difference (95% CI) ([3]; 20 mg/day vs Placebo, MMRM): −0.9 (−2.8, 1.1)
Change from Baseline, MADRS Total at Week 2, LSM Difference (95% CI) ([3]; 20 mg/day vs Placebo, MMRM): −1.9 (−4.3, 0.5)
Change from Baseline, MADRS Total at Week 3, LSM Difference (95% CI) ([3]; 20 mg/day vs Placebo, MMRM): −3.5 (−6.2, −0.8)
Change from Baseline, MADRS Total at Week 4, LSM Difference (95% CI) ([3]; 20 mg/day vs Placebo, MMRM): −3.9 (−6.8, −1.0)
Change from Baseline, MADRS Total at Week 1, Mean (SD) ([3]; 20 mg/day): −6.6 (6.19)
Change from Baseline, MADRS Total at Week 1, Median ([3]; 20 mg/day): −6
Change from Baseline, MADRS Total at Week 2, Mean (SD) ([3]; 20 mg/day): −10.1 (8.20)
Change from Baseline, MADRS Total at Week 2, Median ([3]; 20 mg/day): −8
Change from Baseline, MADRS Total at Week 3, Mean (SD) ([3]; 20 mg/day): −12.5 (9.74)
Change from Baseline, MADRS Total at Week 3, Median ([3]; 20 mg/day): −11
Change from Baseline, MADRS Total at Week 4, Mean (SD) ([3]; 20 mg/day): −13.5 (10.40)
